Key:
Lucilia cuprina = Lucilia cuprina test; assay type: in vivo; settings: application rate 100 ppm; L1 larvae; after 2 days
Summary of the method: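 Mortality (%) of first-instar blowfly larvae, about 20 per vessel, recorded 2 days after exposure to compound-treated minced horsemeat. Compound dissolved in dimethyl sulphoxide, then water-diluted to the desired concentration.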

Phaedon cochleariae = Phaedon cochleariae - spray test; assay type: in vivo; settings: larvae on Chinese cabbage leaf discs, after 7 days
Summary of the method: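 Mortality of mustard beetle larvae was scored as % at day 7 on Brassica pekinensis leaf discs. Discs had been treated by spraying at the desired concentration, using an acetone/dimethylformamide solution diluted in water with 1000 ppm alkylaryl polyglycol ether, and dried before larvae were added.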

Amblyomma hebraeum = assay: Amblyomma hebaraeum test (tick nymphs, immersion); assay type: in vivo; settings: application rate 100 ppm; tick nymphs immersed one minute; after 42 days
Experimental: Solvent: dimethyl sulphoxide
To produce an appropriate active ingredient formulation, 10 mg of active ingredient are mixed with 0.5 ml of dimethyl sulphoxide, and the concentrate is diluted with water to the desired concentration.
Tick nymphs (Amblyomma hebraeum) are placed into perforated plastic beakers and immersed in the desired concentration for one minute. The ticks are transferred on filter paper into a Petri dish and stored in a climate-controlled cabinet.
After 42 days, the kill in % is determined. 100% means that all of the ticks have been killed; 0% means that none of the ticks have been killed.

Ctenocephalides felis [1] = assay: Ctenocephalides felis - oral test; assay type: in vivo; settings: application rate 100 ppm in citrated cattle blood; after 2 days
Summary of the method: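 Roughly 20 unfed adult C. felis imbibe compound-dosed citrated cattle blood (DMSO formulation) across parafilm from a cylinder above their gauze chamber; percentage mortality recorded at day 2.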

[2] = test system: Boophilus microplus Parkhurst strain, SP-resistant; assay: Boophilus microplus - dip test; assay type: in vivo; settings: application rate 100 ppm; dip of engorged adult female ticks; after 7 days
Summary of the method: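 Compound dissolved in DMSO, diluted with water, and used to fully wet groups of 8-10 engorged female cattle ticks (SP-resistant Parkhurst strain). Fertile egg laying assessed at 7 days, doubtful eggs held ~42 days until hatch; 0% means all eggs fertile.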

Ctenocephalides felis [3] = assay: Ctenocephalides felis - in vitro contact tests with adult cat fleas; assay type: in vivo; settings: application rate 5 μg/cm2 (=500 g/ha); after 48 h; fleas dead or moribund
Summary of the method: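 Efficacy, as percentage of fleas dead or moribund, was scored at 48 h by knocking fleas to the tube base. Exposure was by contact with a dried acetone film of compound at 5 μg/cm^2 area dose; 5–10 adults per tube, room temperature, ambient humidity.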

Spodoptera frugiperda = Spodoptera frugiperda - spray test; assay type: in vivo; settings: caterpillars on maize leaf discs, after 7 days
Summary of the method: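 Percent mortality of Spodoptera frugiperda caterpillars scored 7 days after placing them on dried maize leaf discs sprayed at the desired concentration. Spray formulation: compound dissolved in acetone/dimethylformamide, made up with water containing 1000 ppm emulsifier.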

Musca domestica = Musca domestica test; assay type: in vivo; settings: application rate 100 ppm; adult houseflies; after 2 days
Summary of the method: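 First, 10 mg compound was taken up in 0.5 ml DMSO and then brought with water to the required concentration. This was applied with sugar solution to a sponge in vessels holding 10 adult flies; kill was assessed after 2 days.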

[4] = logP determination by HPLC on a reversed-phase column (C18); assay type: physicochemical; settings: for logP^a): HPLC-MS method a); for log P: HPLC-MS; for logP: HPLC, C18 reversed phase, acetonitrile/water with formic acid, EEC Directive 79/831 Annex V.A8
Tetranychus urticae = Tetranychus urticae - spray test, OP-resistant; assay type: in vivo; settings: bean leaf discs, after 6 days
Summary of the method: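 Mortality (%) read on day 6 after spraying Phaseolus vulgaris leaf discs carrying all mite stages with formulations at the desired concentration. Formulation: active ingredient in acetone plus dimethylformamide, made up with emulsifier-containing water (1000 ppm alkylaryl polyglycol ether).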

Boophilus microplus = Boophilus microplus - injection test; assay type: in vivo; settings: application rate 20 μg/animal; injection into engorged adult female ticks; after 7 days
Summary of the method: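 Five engorged adult female cattle ticks each received a 1 μl abdominal injection of compound solution in dimethyl sulphoxide. Fertile egg laying was assessed at 7 days, with doubtful eggs incubated about 42 days until hatch. 0% efficacy means all eggs fertile.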

Myzus persicae = Myzus persicae - spray test; assay type: in vivo; settings: application rate 100 g/ha; Chinese cabbage leaf discs; after 6 days
Summary of the method: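 Mortality of the green peach aphid, as % killed, was read 6 days after spraying infested Brassica pekinensis leaf discs. Compound formulated in acetone/dimethylformamide and made up with emulsifier-containing (1000 ppm) water.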

Rhipicephalus sanguineus = Rhipicephalus sanguineus - in vitro contact tests with adult brown dog ticks; assay type: in vivo; settings: application rate 5 μg/cm2; after 48 h; ticks dead or moribund
Experimental: For the coating of the test tubes, 9 mg of active ingredient are first dissolved in 1 ml of acetone p.a. and then diluted to the desired concentration with acetone p.a. 250 μl of the solution are distributed homogeneously on the inner walls and base of a 25 ml test tube by turning and rocking on an orbital shaker (rocking rotation at 30 rpm for 2 h). With 900 ppm active ingredient solution and internal surface 44.7 cm^2, given homogeneous distribution, an area-based dose of 5 μg/cm^2 is achieved.
After the solvent has evaporated off, the tubes are populated with 5-10 adult dog ticks (Rhipicephalus sanguineus), sealed with a perforated plastic lid and incubated in a horizontal position in the dark at room temperature and ambient humidity. After 48 h, efficacy is determined. To this end, the ticks are knocked to the floor of the tube and incubated on a hotplate at 45-50° C. for not more than 5 min. Ticks which remain motionless on the floor or move in such an uncoordinated manner that they are unable to deliberately avoid the heat by climbing upwards are considered to be dead or moribund.
An efficacy of 100% means that all the ticks were dead or moribund. 0% efficacy means that none of the ticks had been harmed.

[5] = reversed-phase column (C18), Table I-T3

SMILES | efficacy (kill) (Lucilia cuprina) | efficacy (Phaedon cochleariae; application rate 100 g/ha) | efficacy (kill) (Amblyomma hebraeum) | efficacy (kill) (Ctenocephalides felis [1]) | efficacy (laying of fertile eggs) [2] | efficacy (Ctenocephalides felis [3]) | efficacy (Spodoptera frugiperda; application rate 100 g/ha) | efficacy (kill) (Musca domestica) | logP^a) [4] | logP^a) [4, 5] | efficacy (Tetranychus urticae; application rate 100 g/ha) | efficacy (laying of fertile eggs) (Boophilus microplus) | log P [4, 5] | efficacy (Myzus persicae) | efficacy (Phaedon cochleariae; application rate 500 g/ha) | efficacy (Spodoptera frugiperda; application rate 500 g/ha) | logP^a) ([4]; reversed-phase column (C18)) | efficacy (Tetranychus urticae; application rate 500 g/ha) | efficacy (Rhipicephalus sanguineus) | logP [4]
N#CC1(NC(=O)c2cc(-c3cnn(-c4c(Cl)cc(C(F)(C(F)(F)F)C(F)(F)F)cc4C(F)(F)F)c3)ccc2Cl)CC1 [I-T3-57] | 100% | 100% | 100% | 100% | 100% | 100% | 100% | 100% | 4.3 | 4.3 | 100% | 100% |  |  |  |  |  |  |  | 
Cc1cc(C(F)(C(F)(F)F)C(F)(F)F)cc(Br)c1-n1cc(-c2ccc(Cl)c(C(=O)NC3CC3)c2)cn1 [I-T3-86] | 100% | 100% | 100% | 100% | 100% | 100% | 100% | 100% | 4.5 | 4.5 | 100% | 100% |  |  |  |  |  |  |  | 
N#CC1(NC(=O)c2cc(-c3cnn(-c4c(Cl)cc(C(F)(F)F)cc4Cl)c3)cnc2Cl)CC1 [I-T3-95] |  | 100% | 100% | 100% | 100% | 100% | 100% |  | 3.1 |  | 100% | 100% | 3.1 | 90% |  |  |  |  |  | 
CN(C(=O)c1cc(-c2cnn(-c3c(Cl)cc(C(F)(C(F)(F)F)C(F)(F)F)cc3Cl)c2)cnc1Cl)C1(C#N)CC1 [I-T3-102] | 100% |  | 90% | 100% | 100% | 100% |  | 100% |  |  |  | 100% | 4.3 |  | 100% | 100% | 4.3 | 90% |  | 
Cc1cc(C(F)(C(F)(F)F)C(F)(F)F)cc(C(F)(F)F)c1-n1cc(-c2cnc(Cl)c(C(=O)N(C)C3(C#N)CC3)c2)cn1 [I-T3-111] | 100% |  | 80% | 100% | 98% | 100% |  | 100% |  |  | 90% | 100% | 4.4 |  | 100% | 100% | 4.4 |  |  | 
Cc1ncc(-c2cnn(-c3c(Cl)cc(C(F)(C(F)(F)F)C(F)(F)F)cc3C(F)(F)F)c2)cc1C(=O)NC1(C#N)CC1 [I-T3-125] | 100% |  | 100% | 100% | 100% | 100% | 100% | 100% |  |  | 100% | 100% | 3.8 | 100% |  |  | 3.8 |  |  | 
O=C(NC1CC1)c1cc(-c2cnn(-c3c(Br)cc(C(F)(C(F)(F)F)C(F)(F)F)cc3C(F)(F)F)c2)cnc1Cl [I-T3-160] | 100% | 100% |  | 100% | 100% | 100% | 100% | 100% |  |  | 100% | 100% | 4.0 | 90% |  |  | 4.0 |  | 100% | 
N#CC1(NC(=O)c2cc(-c3cnn(-c4c(Br)cc(C(F)(C(F)(F)F)C(F)(F)F)cc4C(F)(F)F)c3)cnc2Cl)CC1 [I-T3-165] | 100% | 100% |  | 100% | 100% | 100% | 100% | 100% |  |  | 100% | 100% | 3.9 | 100% |  |  |  |  | 100% | 
Cc1cc(C(F)(C(F)(F)F)C(F)(F)F)cc(I)c1-n1cc(-c2ccc(Cl)c(C(=O)NC3CC3)c2)cn1 [I-T3-175] | 100% | 100% |  | 100% | 100% | 100% | 100% | 100% |  |  | 100% | 100% | 4.5 | 100% |  |  |  |  | 100% | 
Cc1cc(C(F)(C(F)(F)F)C(F)(F)F)cc(I)c1-n1cc(-c2ccc(Cl)c(C(=O)NC3(C#N)CC3)c2)cn1 [I-T3-176] | 100% | 100% |  | 100% | 100% | 100% | 100% | 100% |  |  | 100% | 100% | 4.4 | 100% |  |  |  |  | 100% | 
Cc1cc(C(F)(C(F)(F)F)C(F)(F)F)cc(C(F)(F)F)c1-c1cc(-c2ccc(Cl)c(C(=O)NC3CC3)c2)on1 [I-T22-5] | 100% | 100% |  | 100% | 100% | 100% | 100% | 100% |  |  | 100% | 100% |  | 100% |  |  |  |  | 100% | 4.9
Cc1cc(C(F)(C(F)(F)F)C(F)(F)F)cc(C(F)(F)F)c1-c1cc(-c2ccc(Cl)c(C(=O)NC3(C#N)CC3)c2)on1 [I-T22-7] | 100% | 100% |  | 100% | 100% | 100% | 100% | 100% |  |  | 100% | 100% |  | 100% |  |  |  |  | 100% | 4.7

Reference: patent US10150737B2, “Compounds for controlling arthropods” (priority 2013, dated 2018)
